From US4153686A, “Process for the preparation of glucoproteins as well as the use thereof” (priority 1976, dated 1979)
≈ marks a conversion by molar mass, not a printed value. Where “and” joins values, the source holds several entries; their conditions need not be identical. Equal entries are not always repeated. Where two headings read alike, the source gives them in different places.

Legend:
[1] = test system: strept. pyogenes ATCC 8668; test: Bactericidal activity in vitro, cylinder test (Table 1); format: cell-based; settings: Streptococcus pyogenes, ATCC8668; 18 h at 37° C., average of three individual measurements; read-out: Bactericidal action (MIC)
fungi = test: Fungicidal activity (statement); format: cell-based; settings: ampicillin alone
Protocol: The MIC-values for the fungicidal activity of the combination product were determined according to the provisions of the American Soc. of Clinical Microbiology, Manual of Clinical Microbiology, 2nd Edition (Washington, D.C.).

[2] = test system: ps. aeruginosa NCTC 10662; test: Bactericidal activity in vitro, cylinder test (Table 1); format: cell-based; settings: Pseudomonas aeruginosa, NCTC10662; 18 h at 37° C., average of three individual measurements; read-out: Bactericidal action (MIC)
h. influencae ATCC 19418 = test: as above; format: cell-based; settings: 18 h at 37° C., average of three individual measurements; read-out: Bactericidal action (MIC)
[3] = test system: staphyl. aur. b, Penicillinase-forming substance; test: Bactericidal MIC-values, 50 strains (Table 2); format: cell-based; settings: of 50 strains; MIC steps 2000 to 0.0002 γ/ml, counts in descending MIC order
[4] = test system: proteus mirabilis b, Penicillinase-forming substance; test: Bactericidal MIC-values, 50 strains (Table 2); format: cell-based; settings: of 50 strains; MIC steps 2000 to 0.0002 γ/ml, counts in descending MIC order
[5] = test system: strept. faecalis ATCC 8043; test: Bactericidal activity in vitro, cylinder test (Table 1); format: cell-based; settings: Enterococcus faecalis, ATCC8043; 18 h at 37° C., average of three individual measurements; read-out: Bactericidal action (MIC)
[6] = test system: stapyloc. aur. ATCC 11522; test: as above; format: cell-based; settings: 18 h at 37° C., average of three individual measurements; read-out: Bactericidal action (MIC)
[7] = test system: escherichia coli NCTC 10418; test: as above; format: cell-based; settings: NCTC10418, 18 h at 37° C., average of three individual measurements, read-out: Bactericidal action (MIC)
[8] = test system: staphyloc. aur. NCTC 6571; test: as above; format: cell-based; settings: 18 h at 37° C., average of three individual measurements; read-out: Bactericidal action (MIC)
psuedomonas aeruginosa = test: Bactericidal MIC-values, 50 strains (Table 2); format: cell-based; settings: of 50 strains; MIC steps 2000 to 0.0002 γ/ml, counts in descending MIC order
[9] = test system: stapyloc. aur. ATCC 6538 P (Penicillinase forming substance); test: Bactericidal activity in vitro, cylinder test (Table 1); format: cell-based; settings: 18 h at 37° C., average of three individual measurements
[10] = test system: strept. faecalis ATCC 10541; test: as above; format: cell-based; settings: Enterococcus faecalis, ATCC10541; 18 h at 37° C., average of three individual measurements; read-out: Bactericidal action (MIC)
[11] = test system: strept. faecalis ATCC 19433; test: as above; format: cell-based; settings: Enterococcus faecalis, ATCC19433; 18 h at 37° C., average of three individual measurements; read-out: Bactericidal action (MIC)
aerobacter aeroges = test: Bactericidal MIC-values, 50 strains (Table 2); format: cell-based; settings: of 50 strains; MIC steps 2000 to 0.0002 γ/ml, counts in descending MIC order
[12] = test system: strept. pneumon. ATCC 6302; test: Bactericidal activity in vitro, cylinder test (Table 1); format: cell-based; settings: 18 h at 37° C., average of three individual measurements; read-out: Bactericidal action (MIC)
[13] = test system: strept. pneumon. ATCC 6301; test: as above; format: cell-based; settings: 18 h at 37° C., average of three individual measurements; read-out: Bactericidal action (MIC)
[14] = test system: strains which form Penicillinase; test: Bactericidal activity against penicillinase-forming strains (statement); format: cell-based; settings: ampicillin alone
[15] = 0.5 mg Dexam 3 × daily perorally, after 5 days
[16] = Clinical test of Norfenefrin and Norfenefrin + glucoprotein, blood pressure (Table 6); format: in vivo, patients; settings: 14th day, 3.0 mg Norfenefrin once daily
[17] = Clinical test of phenylbutazone and phenylbutazone + glucoprotein, BSG (Table 5); format: in vivo, patients; settings: 1.0 g phenylbutazone 3 × daily orally, after 8 days
[18] = three hours after medication, individual patient

## CC1(C)S[C@@H]2[C@H](NC(=O)[C@H](N)c3ccccc3)C(=O)N2[C@H]1C(=O)O [Ampicillin, D-(2-amino-2-phenylacetamido)-3,3-dimethyl-7-oxo-4-thia-1-azabicyclo-[3,2,0]-heptane-2-carboxylic acid]
[1]
  MIC: 0.03 µg/mL (≈ 0.0859 µM)
fungi
  fungicidal activity: no fungicidal activity which can be evaluated in practice
[2]
  MIC: 240 µg/mL (≈ 687 µM)
h. influencae ATCC 19418
  MIC: 0.25 µg/mL (≈ 0.715 µM)
[3]
  Bactericidal MIC-values: number of strains at each MIC step: 50
[4]
  Bactericidal MIC-values: number of strains at each MIC step: 50
[5]
  MIC: 2 µg/mL (≈ 5.72 µM)
[6]
  MIC: 0.06 µg/mL (≈ 0.172 µM)
[7]
  MIC: 8 µg/mL (≈ 22.9 µM)
[8]
  MIC: 0.06 µg/mL (≈ 0.172 µM)
Psuedomonas aeruginosa
  Bactericidal MIC-values: number of strains at each MIC step: 50
[9]
  Bactericidal action (MIC): resistant
[10]
  MIC: 1 µg/mL (≈ 2.86 µM)
[11]
  MIC: 2 µg/mL (≈ 5.72 µM)
Aerobacter aeroges
  Bactericidal MIC-values: number of strains at each MIC step: 50
[12]
  MIC: 0.06 µg/mL (≈ 0.172 µM)
[13]
  MIC: 0.06 µg/mL (≈ 0.172 µM)
[14]
  action against Penicillinase-forming strains: completely ineffective

## C[C@@H]1C[C@H]2[C@@H]3CCC4=CC(=O)C=C[C@]4(C)[C@@]3(F)[C@@H](O)C[C@]2(C)[C@@]1(O)C(=O)CO [Dexam, dexamethasone]
[15]; average of 10 patients
  ASLO, average: 220 i.E.
  BSG after 1 h., average: 23.5
  BSG after 2 h., average: 38.8
[15]; individual patient
  ASLO: 200 i.E. and 100 i.E. and 300 i.E.
  BSG after 1 h.: 25 and 20 and 30 and 24 and 22
  BSG after 2 h.: 30 and 35 and 40 and 45 and 50 and 42 and 38 and 36 and 34

## NCC(O)c1cccc(O)c1 (centres unmarked) [Norfenefrin]
[16]; [18]
  diastolic blood pressure: 70 and 75 and 80
  systolic blood pressure: 120 and 125 and 130
[16]; average of 10 patients
  diastolic blood pressure, average: 76.5
  systolic blood pressure, average: 126.0

## CCCCC1C(=O)N(c2ccccc2)N(c2ccccc2)C1=O [phenylbutazone]
[17]; average of 10 patients
  BSG after 1 h., average: 33.2
  BSG after 2 h., average: 57.9
[17]; individual patient
  BSG after 1 h.: 38 and 40 and 35 and 30 and 28 and 32 and 25
  BSG after 2 h.: 62 and 60 and 50 and 45 and 58
